From publication PMC11189555, “Aryl amino acetamides prevent Plasmodium falciparum ring development via targeting the lipid-transfer protein PfSTART1” (Nature Communications, 2024)
“And” between values parts separate entries of the source, which are not always exact repeats. Equal entries are not always repeated. Where two headings read alike, the source gives them in different places.

Tests used:
CR-WT parasites = experiment: Growth inhibition assay (72 h, LDH activity); type: cell-based, Plasmodium falciparum; settings: CR-WT; for inhibition at 0.1 µM / inhibition at up to 0.1 µM / EC50: Plasmodium falciparum; for inhibition at 0.1 µM / inhibition at up to 0.1 µM: read-out: NORMALISED (growth inhibition, LDH absorbance); for EC50: read-out: EC50 W-991 (95% confidence interval), Fig 4C, n = 3
Description: Parasite growth assays with inhibitory compounds were performed as per[11] and are fully described in the Supplementary Information.
Molecular biology and transfection of P. falciparum: CRISPR method.
The full 5’ homology region of pfstart1 (either WT, N309K or N330K) was amplified from pPfSTART1-HA-2A-Neo-glmS with the same 5’ BglII primer and a new 3’ primer that replaced with PstI with SpeI and introduced a stop codon. The PCR product was then digested with BglII and SpeI and inserted into similarly digested p1.2 parasite vector2. The p1.2 vector had previously been inserted with a homology region amplified from the 3’ end of the pfstart1 gene (3’HB) to form a second homology block for double recombination. The primers used to amplify 3’HB are listed primers listed in […]
60 μg of p1.2-PfSTART1(WT/N309K/N330K) plasmid was linearised with KasI, precipitated in 3 M sodium acetate and ethanol (70% final concentration) overnight at -20°C. The DNA pellet was washed in cold 70% ethanol and resuspended in cytomix 3.
50 μ M of crRNA ( Table S 2) and 50 μM of tracRNA (Integrated DNA Technologies) were allowed to form a duplex (5 min at 95°C), and Cas9 enzyme (Integrated DNA Technologies) was added, and incubated for 20 min at room temperature 4. This crRNA -tracRNA -Cas9 mix was added to each DNA preparation and transfected to 3D7 ring parasites using the Bio -Rad Gene Pulser at 310 V and 950 μF.
Parasites containing the transfected DNA were selected using 2.5 nM WR99210 (Jacobus). Parasites lines were cloned using limiting dilution. Correct integration was tested by PCR (using primer START_5’UTR.F and START_Int.R1 , Table S 2), and sequencing was done using the primers START_3F and START_Int.R2 (Table S 2).
Growth inhibition assays. Synchronised ring-stage parasites (0.3-0.6% parasitemia, 2% haematocrit) were grown for 72 h in a serial-dilution of the compound under […]
and compound 4. Note that M-833 was first purchased from MolPort (MolPort -002-267-916) then made in-house at WEHI: the differences observed in EC50s across experiments are attributed to the different batches of M -833. For some experiments, 0, 0.25 or 2.5 mM of glucosamine (GlcN) was also added. Experiments were set up in technical duplicates or triplicates. Following a freeze -thaw cycle, lactate dehydrogenase (LDH) activity was assessed as an indicator of parasite growt h 5. 30 μL of parasite culture was incubated for 30 min in the dark with 75 μL Malstat mixture (0.1 M Tris pH 9.0, 20 g/L lactic acid, pH 7.5, 0.2% Triton-X100, 0.5 g/L acetylpyridine adenine dinucleotide (APAD, Sigma), 200 μg/mL nitroblue tetrazolium (NBT; Sigma), 1 μg/mL phenozine ethosulfate (PES; Sigma)). Absorbance was then measured at 650 nm, transformed using the formula below, plotted against the logarithm of the concentrations, and a non-linear regression (log(inhibitor) vs. response, variable slope) was calculated using GraphPad Prism to assess the half-inhibitory […]
Growth inhibition % = (1 − average(sample)− average(uRBC)) ∗ 100 […]
The DMSO samples were also used to assess growth of parasite in the presence of 0.25 and 2.5 mM GlcN (normalised by DMSO in 0 mM GlcN). […]

Hyp1-Nluc parasites = experiment: Egress, invasion & recovery assay (Nluc bioluminescence, smears); type: cell-based, Plasmodium falciparum; settings: W-991 60 nM
Source text: To measure egress, invasion, and follow-up recovery in the presence of different compounds, we adapted the method developed in[11], using Hyp1-Nluc parasites. A full description is in the Supplementary Information. […]
and compound 4. Note that M-833 was first purchased from MolPort (MolPort -002-267-916) then made in-house at WEHI: the differences observed in EC50s across experiments are attributed to the different batches of M -833. […]
Egress, invasion & recovery assay. To measure egress, invasion and follow up recovery in the presence of different compounds, we adapted the method developed in6, using Hyp1-Nluc parasites7. These parasites episomally express the exported PEXEL protein Hyp1 (PF3D7_0113300) tagged with a NanoLuc luciferase (NLuc) and were selected with 2.5 nM WR99210 (Jacobus). Highly synchronised schizonts were obtained using ML10 (LifeArc) and sorbitol synchronisation, and Percoll-purified (the culture was gently layered over 67% Percoll (Cytiva) in RPMI, and centrifuged for 15 min at 1500 g and the schizont layer was collected and washed). In a 96-well plate, […]
cultures were set up in 4 replicates (3 replicates for the Nluc readout, and one replicate for Giemsa smears) with 1-2% parasitemia, 2% haematocrit, with the following […]
100 μg/ml heparin (Sigma) and 10 μM E64 (Sigma). The schizonts were allowed to egress and invade for 4 h at 37°C. A “background” plate without treatment was left in the fridge during this time. After 4 h, cultures were sorbitol -treated to eliminate schizonts that have not egressed. Smears were made every day for the following 3 days, and 5 μL of the resuspended cultures were taken to measure Nluc activity (to assess parasite’s presence). To measure Nluc activity, 5 μL culture were added to 45 μL NanoGlo reagent (1x Promega lysis buffer and NanoGlo reagent; Promega). The average luminescence of the background cultures was subtracted to the average luminescence of each sample. […]
The viable parasite value was then expressed in log units and parasite reduction ratio was calculated as a decrease in […]

[1] = 0.25 mM GlcN, dilution point 1 of 10, starting concentration 100 nM
[2] = 2.5 mM GlcN, dilution point 1 of 10, starting concentration 100 nM
[3] = 2.5 mM GlcN, dilution point 2 of 10 from starting concentration 100 nM
[4] = 2.5 mM GlcN, dilution point 3 of 10 from starting concentration 100 nM
[5] = 2.5 mM GlcN, dilution point 4 of 10 from starting concentration 100 nM
[6] = 2.5 mM GlcN, dilution point 6 of 10 from starting concentration 100 nM

Structure (SMILES): CC(C)(Nc1ccc(Cl)c(S(=O)(=O)N2CCOCC2)c1)C(=O)Nc1ccc(F)c(Cl)c1 [W-991]
- NORMALISED (growth inhibition, LDH absorbance vs DMSO and uRBC) (CR-WT parasites; 0 mM GlcN, W991 at 1.23457 nM): 49.5102 and 70.9626
- NORMALISED (growth inhibition, LDH absorbance vs DMSO and uRBC) (CR-WT parasites; 0 mM GlcN, W991 at 3.7037 nM): 86.3119 and 94.5107
- NORMALISED (growth inhibition, LDH absorbance vs DMSO and uRBC) (CR-WT parasites; 0 mM GlcN, W991 at 11.1111 nM): 91.2364 and 97.6134
- NORMALISED (growth inhibition, LDH absorbance vs DMSO and uRBC) (CR-WT parasites; 0 mM GlcN, W991 at 33.3333 nM): 92.4279 and 96.4200
- NORMALISED (growth inhibition, LDH absorbance vs DMSO and uRBC) (CR-WT parasites; 0 mM GlcN, W991 at 100 nM): 91.9778 and 98.0111
- NORMALISED (growth inhibition, LDH absorbance) (CR-WT parasites; [1]): 97.4106
- NORMALISED (growth inhibition, LDH absorbance) (CR-WT parasites; 0.25 mM GlcN, dilution point 2 of 10 from starting concentration 100 nM): 93.8101
- NORMALISED (growth inhibition, LDH absorbance) (CR-WT parasites; 0.25 mM GlcN, dilution point 3 of 10 from starting concentration 100 nM): 94.0567
- NORMALISED (growth inhibition, LDH absorbance) (CR-WT parasites; 0.25 mM GlcN, dilution point 4 of 10 from starting concentration 100 nM): 92.7990
- NORMALISED (growth inhibition, LDH absorbance) (CR-WT parasites; 0.25 mM GlcN, dilution point 5 of 10 from starting concentration 100 nM): 69.6729 and 71.5413
- NORMALISED (growth inhibition, LDH absorbance) (CR-WT parasites; 0.25 mM GlcN, dilution point 6 of 10 from starting concentration 100 nM): 30.2387 and 29.5808
- NORMALISED (growth inhibition, LDH absorbance) (CR-WT parasites; [2]): 92.5403
- NORMALISED (growth inhibition, LDH absorbance) (CR-WT parasites; [3]): 92.2581
- NORMALISED (growth inhibition, LDH absorbance) (CR-WT parasites; [4]): 92.0699
- NORMALISED (growth inhibition, LDH absorbance) (CR-WT parasites; [5]): 91.3306
- NORMALISED (growth inhibition, LDH absorbance) (CR-WT parasites; 2.5 mM GlcN, dilution point 5 of 10 from starting concentration 100 nM): 90.4301
- NORMALISED (growth inhibition, LDH absorbance) (CR-WT parasites; [6]): 75.1747
- NORMALISED (growth inhibition, LDH absorbance) (CR-WT parasites; 2.5 mM GlcN, dilution point 7 of 10 from starting concentration 100 nM): 66.8125 and 50.5511
- NORMALISED (growth inhibition, LDH absorbance) (CR-WT parasites; 2.5 mM GlcN, dilution point 8 of 10 from starting concentration 100 nM): 47.5123 and 39.2070
- NORMALISED (growth inhibition, LDH absorbance) (CR-WT parasites; 2.5 mM GlcN, dilution point 9 of 10 from starting concentration 100 nM): 32.6882 and 33.0782
- NORMALISED (growth inhibition, LDH absorbance) (CR-WT parasites; 2.5 mM GlcN, dilution point 10 of 10 from starting concentration 100 nM): 35.7796 and 19.6829
- fold sensitised on PfSTART1 knock-down with GlcN (CR-WT parasites; Fig 4C): 7 fold
- inhibition at 0.1 µM (CR-WT parasites; [1]): 93.4%
- inhibition at 0.1 µM (CR-WT parasites; [2]): 94.2%
- inhibition at up to 0.1 µM (CR-WT parasites; [3]): 91.4%
- inhibition at up to 0.1 µM (CR-WT parasites; [4]): 93%
- inhibition at up to 0.1 µM (CR-WT parasites; [5]): 91.6%
- inhibition at up to 0.1 µM (CR-WT parasites; [6]): 80.3%
- EC50 (CR-WT parasites; 0 mM GlcN): 1.08 nM
- EC50 (CR-WT parasites; 0.25 mM GlcN): 0.727 nM
- EC50 (CR-WT parasites; 2.5 mM GlcN): 0.154 nM
- parasite morphology at 72 h after 4 h treatment (Hyp1-Nluc parasites; M-833 2 µM, Giemsa smears): resembled the dysmorphic ring-stage parasites
- parasite growth (Nluc bioluminescence) followed 72 h after 4 h treatment (Hyp1-Nluc parasites; schizonts treated 4 h: M-833 2 µM, ML10 30 nM, E64 10 µM, heparin 100 µg/mL, then washed off): virtually no recovery after three days
